Experimental data published in paper PMC9234961 (Journal of Medicinal Chemistry, 2022).
Several values for one entry are separate records, joined by “and”; a condition that tells them apart may be missing. Identical values can stand only once. Like-named read-outs stand apart in the source and are kept apart here.

Key:
human BCL6 BTB domain = human BCL6 BTB domain (Homo sapiens, UniProt P41182); assay: biochemical; conditions: BCL6 TR-FRET IC50 individual replicates, single replicate values
[1] = Microsomal clearance assay (RLM); assay type: in vitro ADME; conditions: rat liver microsomes, 1 μM compound
Method: 6. Supplementary experimental: in vitro DMPK assays
6.1 Microsomal clearance assay
Microsomal clearance was determined in female CD1 mice, female Sprague–Dawley rats, and mixed gender human liver microsomes obtained from BioIVT (Peterborough, U.K.) following incubation of 1 μM compound at 37 °C in 0.5 mg/mL microsomal protein, 3 mmol/L MgCl2, 1 mmol/L NADPH, 2.5 mmol/L and 10 mmol/L phosphate buffer (pH 7.4) (all purchased from Sigma-Aldrich, Gillingham, U.K). Reactions were started by addition of the cofactors following 10 min preincubation of microsomes with test compound and were terminated at −1, 0, 5, 10, 15, and 30 min with three volumes of ice-cold methanol containing internal standard. Samples were centrifuged at 2800g for 30 min at 4 °C and the supernatants analyzed.
Control incubations were prepared as above with omission of cofactors. Compound measurements were […]
separation with a 3 min gradient of 0.1% formic acid in methanol on a Kinetex C18, 50 × 2.1 mm 2.6 μm UPLC column (Phenomenex, Macclesfield, UK). […]

CNR2 = target: T1, CNR2 (Homo sapiens, UniProt P34972); assay: SAFETYScan GPCR cAMP, Agonist; assay type: cell-based
T1 construct: expressed in transfected cells
T1 sequence (P34972 whole entry): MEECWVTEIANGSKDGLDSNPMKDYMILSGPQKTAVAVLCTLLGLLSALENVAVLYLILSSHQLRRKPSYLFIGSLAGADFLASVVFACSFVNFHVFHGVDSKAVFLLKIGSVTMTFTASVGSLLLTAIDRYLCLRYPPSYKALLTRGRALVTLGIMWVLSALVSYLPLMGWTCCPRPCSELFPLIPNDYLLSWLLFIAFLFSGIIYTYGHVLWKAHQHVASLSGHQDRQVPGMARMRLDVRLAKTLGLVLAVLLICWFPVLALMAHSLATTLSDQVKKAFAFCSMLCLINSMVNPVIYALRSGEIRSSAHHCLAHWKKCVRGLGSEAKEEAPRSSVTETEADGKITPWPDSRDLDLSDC
Description: (§1) Supplement jm1c02175_si_002.xlsx, sheet "SAFETYScan" | column: RC50 (uM); Max Response

OPRK1 = OPRK1 (Homo sapiens, UniProt P41145); assay: SAFETYScan GPCR cAMP, Agonist; assay type: cell-based
OPRK1, sequence (P41145 whole entry, species assumed): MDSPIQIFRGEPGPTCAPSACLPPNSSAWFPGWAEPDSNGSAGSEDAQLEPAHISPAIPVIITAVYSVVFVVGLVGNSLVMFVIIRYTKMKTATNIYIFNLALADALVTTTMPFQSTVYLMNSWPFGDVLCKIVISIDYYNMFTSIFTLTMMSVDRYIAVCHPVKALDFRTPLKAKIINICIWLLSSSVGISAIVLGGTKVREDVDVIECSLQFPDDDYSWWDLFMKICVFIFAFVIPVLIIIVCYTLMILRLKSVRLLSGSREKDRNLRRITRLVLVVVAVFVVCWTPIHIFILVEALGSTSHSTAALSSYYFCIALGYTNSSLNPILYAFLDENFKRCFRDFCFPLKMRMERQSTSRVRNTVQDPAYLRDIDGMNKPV
Description: as §1

ADRA2A = target: T2, ADRA2A (Homo sapiens, UniProt P08913); assay: SAFETYScan GPCR cAMP, Agonist; assay type: cell-based
T2 construct: expressed in transfected cells
T2 sequence (P08913 1-465): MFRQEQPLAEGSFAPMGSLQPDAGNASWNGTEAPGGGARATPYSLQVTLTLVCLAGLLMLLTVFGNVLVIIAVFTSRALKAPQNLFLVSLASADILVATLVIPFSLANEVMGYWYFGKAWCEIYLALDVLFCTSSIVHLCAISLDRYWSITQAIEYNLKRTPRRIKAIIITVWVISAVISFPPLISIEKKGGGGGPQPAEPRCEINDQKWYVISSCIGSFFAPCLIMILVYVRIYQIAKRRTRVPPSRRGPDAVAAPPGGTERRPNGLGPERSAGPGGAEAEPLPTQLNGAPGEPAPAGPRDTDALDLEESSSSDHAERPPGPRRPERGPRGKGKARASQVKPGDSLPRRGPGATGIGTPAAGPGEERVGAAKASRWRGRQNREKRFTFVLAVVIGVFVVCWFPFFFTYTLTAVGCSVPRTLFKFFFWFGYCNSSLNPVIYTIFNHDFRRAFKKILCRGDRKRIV
Description: as §1

ADRB1 = target: T3, ADRB1 (Homo sapiens, UniProt P08588); assay: SAFETYScan GPCR cAMP, Agonist; assay type: cell-based
T3 construct: expressed in transfected cells
T3 sequence (P08588 whole entry): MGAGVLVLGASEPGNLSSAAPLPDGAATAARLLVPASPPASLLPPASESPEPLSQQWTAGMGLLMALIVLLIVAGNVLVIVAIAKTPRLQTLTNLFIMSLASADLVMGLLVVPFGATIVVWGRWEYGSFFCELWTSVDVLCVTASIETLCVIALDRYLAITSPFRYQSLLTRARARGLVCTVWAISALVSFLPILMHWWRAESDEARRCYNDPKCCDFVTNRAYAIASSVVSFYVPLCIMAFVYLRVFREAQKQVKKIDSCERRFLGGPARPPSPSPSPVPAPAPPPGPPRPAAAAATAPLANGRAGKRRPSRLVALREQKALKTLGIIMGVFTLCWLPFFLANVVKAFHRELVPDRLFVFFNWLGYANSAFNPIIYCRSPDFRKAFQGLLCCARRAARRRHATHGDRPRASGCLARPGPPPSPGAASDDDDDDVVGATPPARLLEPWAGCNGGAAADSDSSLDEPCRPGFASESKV
Description: as §1

DRD2S = target: T4, DRD2S (Homo sapiens, UniProt P14416); assay: SAFETYScan GPCR cAMP, Agonist; assay type: cell-based
T4 construct: expressed in transfected cells
T4 sequence (P14416 1-414 isoform P14416-2): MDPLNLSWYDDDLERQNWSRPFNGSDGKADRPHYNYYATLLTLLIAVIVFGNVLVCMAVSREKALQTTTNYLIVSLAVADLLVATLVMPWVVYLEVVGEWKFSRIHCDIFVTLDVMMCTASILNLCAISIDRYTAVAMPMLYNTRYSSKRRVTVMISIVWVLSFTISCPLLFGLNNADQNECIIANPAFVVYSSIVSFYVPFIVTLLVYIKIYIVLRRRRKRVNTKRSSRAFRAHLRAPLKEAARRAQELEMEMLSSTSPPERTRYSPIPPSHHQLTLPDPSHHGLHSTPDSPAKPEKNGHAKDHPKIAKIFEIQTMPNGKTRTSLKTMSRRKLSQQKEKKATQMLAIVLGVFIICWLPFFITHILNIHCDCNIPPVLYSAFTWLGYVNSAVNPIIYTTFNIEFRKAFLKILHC
Description: as §1

ADRB2 = target: T5, ADRB2 (Homo sapiens, UniProt P07550); assay: SAFETYScan GPCR cAMP, Agonist; assay type: cell-based
T5 construct: expressed in transfected cells
T5 sequence (P07550 whole entry): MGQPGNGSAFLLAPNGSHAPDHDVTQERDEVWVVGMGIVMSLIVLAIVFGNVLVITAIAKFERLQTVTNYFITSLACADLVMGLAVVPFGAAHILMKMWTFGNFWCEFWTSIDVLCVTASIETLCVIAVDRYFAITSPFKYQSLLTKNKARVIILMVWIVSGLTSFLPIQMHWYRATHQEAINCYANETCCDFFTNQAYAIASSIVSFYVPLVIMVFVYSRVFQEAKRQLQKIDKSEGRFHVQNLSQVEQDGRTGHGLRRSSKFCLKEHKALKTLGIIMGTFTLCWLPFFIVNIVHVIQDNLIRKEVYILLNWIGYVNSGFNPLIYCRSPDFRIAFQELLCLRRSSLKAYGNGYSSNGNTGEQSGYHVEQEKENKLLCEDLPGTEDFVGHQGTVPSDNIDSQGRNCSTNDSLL
Description: as §1

OPRD1 = OPRD1 (Homo sapiens, UniProt P41143); assay: SAFETYScan GPCR cAMP, Agonist; assay type: cell-based
OPRD1, sequence (P41143 whole entry, species assumed): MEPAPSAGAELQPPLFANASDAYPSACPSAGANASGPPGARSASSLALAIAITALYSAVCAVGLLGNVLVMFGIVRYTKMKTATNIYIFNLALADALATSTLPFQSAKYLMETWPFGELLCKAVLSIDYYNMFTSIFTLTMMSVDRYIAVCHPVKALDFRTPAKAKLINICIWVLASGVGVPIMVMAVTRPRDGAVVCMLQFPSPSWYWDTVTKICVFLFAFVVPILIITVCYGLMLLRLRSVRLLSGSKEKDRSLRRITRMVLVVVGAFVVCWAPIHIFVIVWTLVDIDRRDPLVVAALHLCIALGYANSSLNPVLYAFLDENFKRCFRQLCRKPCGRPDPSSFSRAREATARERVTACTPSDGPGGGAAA
Description: as §1

OPRM1 = OPRM1 (Homo sapiens, UniProt P35372); assay: SAFETYScan GPCR cAMP, Agonist; assay type: cell-based
OPRM1, sequence (P35372 whole entry, species assumed): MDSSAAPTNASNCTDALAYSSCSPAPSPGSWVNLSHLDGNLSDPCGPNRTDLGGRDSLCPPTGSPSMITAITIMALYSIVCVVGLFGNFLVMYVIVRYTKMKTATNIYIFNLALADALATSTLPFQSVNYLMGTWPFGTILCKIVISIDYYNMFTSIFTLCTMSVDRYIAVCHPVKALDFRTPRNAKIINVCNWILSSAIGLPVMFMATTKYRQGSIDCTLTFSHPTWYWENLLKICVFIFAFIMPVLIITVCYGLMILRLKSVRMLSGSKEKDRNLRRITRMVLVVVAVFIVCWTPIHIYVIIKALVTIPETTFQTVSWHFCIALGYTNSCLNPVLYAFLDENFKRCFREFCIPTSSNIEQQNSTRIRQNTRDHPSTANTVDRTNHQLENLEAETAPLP
Description: as §1

HRH2 = target: T6, HRH2 (Homo sapiens, UniProt P25021); assay: SAFETYScan GPCR cAMP, Agonist; assay type: cell-based
T6 construct: expressed in transfected cells
T6 sequence (P25021 whole entry): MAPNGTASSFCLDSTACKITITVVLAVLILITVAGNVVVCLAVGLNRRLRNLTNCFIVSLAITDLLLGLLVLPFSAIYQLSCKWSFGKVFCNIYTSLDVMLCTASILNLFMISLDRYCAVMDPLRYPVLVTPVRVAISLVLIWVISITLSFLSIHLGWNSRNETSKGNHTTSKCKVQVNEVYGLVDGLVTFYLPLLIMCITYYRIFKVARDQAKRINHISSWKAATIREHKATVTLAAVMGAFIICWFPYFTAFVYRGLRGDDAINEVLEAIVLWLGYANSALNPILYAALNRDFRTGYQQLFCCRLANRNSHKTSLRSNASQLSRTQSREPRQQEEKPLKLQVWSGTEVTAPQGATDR
Description: as §1

[2] = target: endogenous BCL6 in OCI-Ly1 cells (Homo sapiens, UniProt P41182); assay: cell-based
[3] = Microsomal clearance assay (MLM); assay type: in vitro ADME; conditions: female, CD1, pH 7.4; mouse liver microsomes, 1 μM compound
Method in brief: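 Compound (1 µM) was incubated at 37 °C with female CD1 mouse, female Sprague–Dawley rat or mixed-gender human liver microsomes (0.5 mg/mL protein) in 10 mmol/L phosphate, pH 7.4, with 3 mmol/L MgCl2. After 10 min preincubation, 1 mmol/L NADPH started the reaction. Samples taken up to 30 min were methanol-quenched and analysed by LC-MS.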

GR = target: T7, GR (Homo sapiens, UniProt P04150); assay: SAFETYScan NHR Protein Interaction, Agonist; assay type: cell-based
T7 sequence (P04150 1-777): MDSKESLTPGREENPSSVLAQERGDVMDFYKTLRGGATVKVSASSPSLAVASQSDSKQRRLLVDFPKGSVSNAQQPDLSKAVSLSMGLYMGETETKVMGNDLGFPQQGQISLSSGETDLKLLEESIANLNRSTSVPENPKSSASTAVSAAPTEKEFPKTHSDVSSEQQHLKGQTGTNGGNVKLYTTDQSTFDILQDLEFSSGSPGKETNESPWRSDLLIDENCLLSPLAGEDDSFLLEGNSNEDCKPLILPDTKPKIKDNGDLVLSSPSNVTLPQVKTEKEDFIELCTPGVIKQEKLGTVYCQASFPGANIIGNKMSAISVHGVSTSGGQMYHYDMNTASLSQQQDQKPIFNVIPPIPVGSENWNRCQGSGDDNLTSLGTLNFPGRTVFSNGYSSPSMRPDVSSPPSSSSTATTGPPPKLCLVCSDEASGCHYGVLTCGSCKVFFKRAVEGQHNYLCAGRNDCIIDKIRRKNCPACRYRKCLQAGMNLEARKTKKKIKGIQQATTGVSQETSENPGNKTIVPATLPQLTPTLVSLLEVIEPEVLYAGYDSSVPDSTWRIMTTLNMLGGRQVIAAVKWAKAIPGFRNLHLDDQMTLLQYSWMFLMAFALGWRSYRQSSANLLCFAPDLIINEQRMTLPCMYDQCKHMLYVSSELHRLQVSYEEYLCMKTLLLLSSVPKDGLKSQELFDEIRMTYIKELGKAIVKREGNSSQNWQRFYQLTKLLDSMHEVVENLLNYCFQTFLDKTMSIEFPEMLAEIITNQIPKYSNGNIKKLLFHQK
Description: as §1

## C[C@H]1C[C@@H](O)CN(c2ncc(Cl)c(Nc3ccc4c(c3)c3c(c(=O)n4C)OCC(F)(F)[C@H](C4CC4)N3)n2)C1 [12a CCT373566, (S)-10-((5-Chloro-2-((3R,5S)-3-hydroxy-5-methylpiperidin-1-yl)pyrimidin-4-yl)amino)-2-cyclopropyl-3,3-difluoro-7-methyl-1,2,3,4-tetrahydro-[1,4]oxazepino[2,3-c]quinolin-6(7H)-one]
Human BCL6 BTB domain
  IC50: 3.8 nM and 1.9 nM and 1.7 nM and 2.6 nM (3×) and 2.4 nM and 2.9 nM and 1.8 nM (3×) and 1.2 nM and 2.7 nM
[1]; female, Sprague-Dawley, pH 7.4
  microsomal CLint at 0.5 h, 1 µM: 3 µL/min/mg
[1]
  CLint (RLM): low clearance
CNR2; read-out: Max Response
  Emax: 0%
CNR2; read-out: RC50 (EC50)
  EC50: > 10 µM
OPRK1; read-out: Max Response
  Emax: 37.1%
OPRK1; read-out: RC50 (EC50)
  EC50: > 10 µM
ADRA2A; read-out: Max Response
  Emax: 33.6%
ADRA2A; read-out: RC50 (EC50)
  EC50: > 10 µM
ADRB1; read-out: Max Response
  Emax: 0%
ADRB1; read-out: RC50 (EC50)
  EC50: > 10 µM
DRD2S; read-out: Max Response
  Emax: 1.64%
DRD2S; read-out: RC50 (EC50)
  EC50: > 10 µM
ADRB2; read-out: Max Response
  Emax: 0%
ADRB2; read-out: RC50 (EC50)
  EC50: > 10 µM
OPRD1; read-out: Max Response
  Emax: 60.3%
OPRD1; read-out: RC50 (EC50)
  EC50: 4.95 µM
OPRM1; read-out: Max Response
  Emax: 28.9%
OPRM1; read-out: RC50 (EC50)
  EC50: > 10 µM
HRH2; read-out: Max Response
  Emax: 0%
HRH2; read-out: RC50 (EC50)
  EC50: > 10 µM
[2]; OCI-Ly1, read-out: MSD degrader assay [OCI-LY1] Dmax individual replicates, single replicate values
  Dmax: 89.8%
[2]; OCI-Ly1, read-out: MSD degrader assay [OCI-Ly1] Dmax, mean maximal degradation of BCL6, OCI-Ly1 cells, 2 h
  Dmax: 91.5%
[2]; OCI-Ly1 MSD assay
  degradation of BCL6 (in words): potently degrading isomer
[2]; geometric mean, OCI-Ly1 cells, 2 h incubation
  MSD degrader assay [OCI-Ly1] DC50: sub-nanomolar
[2]; mean maximal degradation of BCL6, OCI-Ly1 cells, 2 h
  MSD degrader assay [OCI-Ly1] Dmax: > 90%
[2]; mean of replicates
  MSD degrader assay [OCI-LY1] pDC50 mean: 9.1465
[2]; read-out: Calculated free DC50 [OCI-Ly1], DC50 corrected with fu,media
  DC50: 0.088 nM
[2]; read-out: MSD degrader assay [OCI-LY1] DC50 individual replicates, single replicate values
  DC50: 1 nM and 0.9 nM (4×) and 1.5 nM and 0.5 nM (2×) and 0.8 nM and 1.2 nM and 0.3 nM and 0.6 nM (3×) and 0.4 nM (2×) and 1.3 nM
[2]; read-out: MSD degrader assay [OCI-Ly1] DC50, geometric mean, OCI-Ly1 cells, 2 h incubation
  DC50: 0.7 nM
[2]; single replicate values
  MSD degrader assay [OCI-LY1] Dmax individual replicates: 90.3% and 91.7% and 95.3% (2×) and 94.5% and 93.1% and 94.4% and 94.1% and 92.7% and 96.2% and 84.1% and 84.0% and 89.6% and 88.7% and 89.5% and 92.4%
[3]
  microsomal CLint at 0.5 h, 1 µM: 116 µL/min/mg
GR; read-out: Max Response
  Emax: 0.05%
GR; read-out: RC50 (EC50)
  EC50: > 10 µM
